Each compound was assayed against T1, CBL-B (Homo sapiens, UniProt Q13191) (assay: CBL-B TR-FRET IC50 screening (E1/E2 ubiquitination, Biotin-Ubiquitin, Anti GST-Tb donor / Streptavidin-d2 acceptor)). Settings: CBL-B 10 nM final; 11-point titration from 100 uM; binned A-F; read-out: CBL-B TR-FRET activity IC50.
T1 construct: GST
Assay type: biochemical

T1 sequence (Q13191 whole entry): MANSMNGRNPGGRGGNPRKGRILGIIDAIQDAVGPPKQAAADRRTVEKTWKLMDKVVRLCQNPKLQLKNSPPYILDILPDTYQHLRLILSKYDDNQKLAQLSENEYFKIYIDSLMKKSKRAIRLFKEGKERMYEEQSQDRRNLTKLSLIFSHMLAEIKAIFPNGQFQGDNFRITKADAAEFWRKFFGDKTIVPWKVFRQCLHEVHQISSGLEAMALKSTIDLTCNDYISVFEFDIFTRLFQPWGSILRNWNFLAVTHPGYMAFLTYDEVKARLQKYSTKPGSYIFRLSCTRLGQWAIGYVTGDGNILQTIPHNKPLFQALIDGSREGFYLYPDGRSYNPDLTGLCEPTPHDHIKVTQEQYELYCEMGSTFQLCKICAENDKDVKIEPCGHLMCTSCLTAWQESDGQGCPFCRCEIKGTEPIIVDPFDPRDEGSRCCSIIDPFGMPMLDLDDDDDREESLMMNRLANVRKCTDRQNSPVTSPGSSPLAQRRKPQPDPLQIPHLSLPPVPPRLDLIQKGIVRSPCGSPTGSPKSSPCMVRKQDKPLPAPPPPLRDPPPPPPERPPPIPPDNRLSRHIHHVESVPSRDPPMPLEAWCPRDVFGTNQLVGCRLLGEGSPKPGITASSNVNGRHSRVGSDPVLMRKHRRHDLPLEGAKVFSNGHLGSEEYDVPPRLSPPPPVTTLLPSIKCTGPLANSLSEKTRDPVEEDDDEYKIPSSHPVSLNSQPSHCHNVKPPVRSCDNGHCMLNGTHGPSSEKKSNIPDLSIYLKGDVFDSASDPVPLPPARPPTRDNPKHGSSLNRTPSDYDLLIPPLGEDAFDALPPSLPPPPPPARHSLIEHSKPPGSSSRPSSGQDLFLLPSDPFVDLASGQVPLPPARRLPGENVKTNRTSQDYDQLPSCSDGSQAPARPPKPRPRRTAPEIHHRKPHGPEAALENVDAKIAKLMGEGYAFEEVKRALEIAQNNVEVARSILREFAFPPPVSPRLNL

SMILES | IC50 [nM]
C[C@H]1CCCN(C(c2cc(C(F)(F)F)c3cn(-c4cccc(C5(Cc6nncn6C)COC5)c4)c(=O)n3c2)C(F)(F)F)C1 (single isomer, unassigned) [Compound 196] | 301 to 1000
Cn1cnnc1[C@@H](c1cccc(-n2cc3c(C(F)(F)F)cc(CN4CCN(C=O)CC4)cn3c2=O)c1)C1CCC1 [Compound 340_P2] | 1000 to 3000
CC(=O)N1CC(Cc2nncn2C)(c2cccc(-n3cc4c(C(F)(F)F)cccn4c3=O)c2)C1 [Compound 143] | > 10000
C[C@@H](Cc1nnc[nH]1)c1cccc(-n2cc3c(C(F)(F)F)cccn3c2=O)c1 [Compound 47] | > 10000
C[C@H]1CCCN(Cc2cc(C(F)(F)F)c3cn(-c4cccc([C@H](c5nccs5)C5CCC5)c4)c(=O)n3c2)C1 (single isomer, unassigned) [Compound 306] | > 10000
C[C@@H](Cc1nncn1C)c1cccc(-n2cc3c(C(F)(F)F)cccn3c2=O)c1 [Compound 3] | 3000 to 10000
Cn1cnnc1C1(c2cccc(-n3cc4c(C(F)(F)F)cc(C#N)cn4c3=O)c2)CC2(CC2)C1 [Compound 113] | 301 to 1000
Cc1cn(CCO)nc1[C@@H](c1cccc(-n2cc3c(C(F)(F)F)cc(CN4CCC[C@H](C)C4)cn3c2=O)c1)C1CCC1 (single isomer, unassigned) [Compound 360] | > 10000
O=c1n(-c2cccc([C@H](c3nncs3)C3CCC3)c2)cc2c(C(F)(F)F)cc(CN3CCC4(CC4)C3)cn12 [Compound 328] | 1000 to 3000
Cn1cnnc1CC1(c2cccc(-n3cc4c(C(F)(F)F)cccn4c3=O)c2)CN(C(=O)OC(C)(C)C)C1 [Compound 133] | > 10000
C[C@H]1CCCN(Cc2cc(C(F)(F)F)c3cn(-c4cc(C#N)cc([C@H](c5nncn5C)C5CCC5)c4)c(=O)n3c2)C1 (single isomer, unassigned) [Compound 289] | > 10000
COc1cc(C(F)(F)F)c2cn(-c3cccc(C4(Cc5nncn5C)COC4)c3)c(=O)n2c1 [Compound 88] | 1000 to 3000
COC(=O)N1CCN(Cc2cc(C(F)(F)F)c3cn(-c4cccc([C@@H](c5nncn5C)C5CCC5)c4)c(=O)n3c2)CC1 [Compound 351_P1] | 1000 to 3000
Cn1cnnc1CC1(c2cccc(-n3cc4c(C(F)(F)F)cccn4c3=O)c2)COC1 [Compound 9] | 100 to 300

More lines, now with the values ahead:

IC50 [nM] | SMILES
< 100 | C[C@@H]1CN(Cc2cc(C(F)(F)F)c3cn(-c4cccc([C@H](c5nncn5C)C5COC5)c4)c(=O)n3c2)CCO1 [Compound 304]
< 100 | CC(c1cc(C(F)(F)F)c2cn(-c3cccc([C@H](c4nncn4C)C4CCC4)c3)c(=O)n2c1)N1CCC[C@H](C)C1 (single isomer, unassigned) [Compound 194]
< 100 | C[C@H]1CCCN(Cc2cc(C(F)(F)F)c3cn(-c4cccc([C@@H](c5nnc[nH]5)C5CCC5)c4)c(=O)n3c2)C1 [Compound 269]
100 to 300 | Cn1cnnc1CC1(c2cccc(-n3cc4c(C(F)(F)F)cc(C#N)cn4c3=O)c2)COC1 [Compound 18]
< 100 | Cn1cnnc1[C@@H](c1cccc(-n2cc3c(C(F)(F)F)cc(CN4CC5(CCCC5)C4)cn3c2=O)c1)C1CCC1 [Compound 295]
< 100 | COc1cc(-n2cc3c(C(F)(F)F)cc(CN4CCC[C@H](C)C4)cn3c2=O)cc(C2(Cc3nncn3C)COC2)c1 [Compound 107]
< 100 | Cn1cnnc1CC1(c2cccc(-n3cc4c(C(F)(F)F)cc(CN5CCC(O)CC5)cn4c3=O)c2)COC1 [Compound 53]
< 100 | COCCOCc1cc(C(F)(F)F)c2cn(-c3cccc(C4(Cc5nncn5C)COC4)c3)c(=O)n2c1 [Compound 77]
< 100 | COc1cc(-n2cc3c(C(F)(F)F)cc(CN4CC[C@H](F)C4)cn3c2=O)cc(C2(Cc3nncn3C)COC2)c1 [Compound 109]
< 100 | Cn1cnnc1[C@@H](c1cccc(-n2cc3c(C(F)(F)F)cc(CN4CCC5(CC5)C4)cn3c2=O)c1)C1CCC1 (single isomer, unassigned) [Compound 163]
100 to 300 | Cc1c[nH]nc1[C@@H](c1cccc(-n2cc3c(C(F)(F)F)cc(CN4CCO[C@H](C)C4)cn3c2=O)c1)C1CCC1 [Compound 221]
< 100 | Cn1cnnc1C1(c2cccc(-n3cc4c(C(F)(F)F)cc(CN5CC6(CC6)C5)cn4c3=O)c2)CC2(CC2)C1 [Compound 114]
< 100 | [2H]C([2H])([2H])n1cnnc1CC1(c2cccc(-n3cc4c(C(F)(F)F)cc([C@@H](C)N5CCC[C@H](C)C5)cn4c3=O)c2)COC1 [Compound 278_P2]
< 100 | CC(c1cc(C(F)(F)F)c2cn(-c3cccc(C4(Cc5nncn5C(F)F)COC4)c3)c(=O)n2c1)N1CCC(F)CC1 (single isomer, unassigned) [Compound 96]
< 100 | [2H]C([2H])([2H])n1cnnc1CC1(c2cccc(-n3cc4c(C(F)(F)F)cc([C@H](C)N5CCC[C@H](C)C5)cn4c3=O)c2)COC1 [Compound 278_P1]
< 100 | Cn1cnnc1[C@@H](c1cccc(-n2cc3c(C(F)(F)F)cc(CN4CC(F)C4)cn3c2=O)c1)C1CCC1 [Compound 297]
< 100 | C[C@H]1CCCN(Cc2cc(C(F)(F)F)c3cn(-c4cccc([C@H](c5nncn5C)C5COC5)c4)c(=O)n3c2)C1 [Compound 140]
< 100 | CC(c1cc(C(F)(F)F)c2cn(-c3cccc(C4(Cc5nncn5C)COC4)c3)c(=O)n2c1)N1CCO[C@H](C)C1 (single isomer, unassigned) [Compound 156]
< 100 | Cn1cnnc1[C@@H](c1cccc(-n2cc3c(C(F)(F)F)cc(CN4CCc5ncsc5C4)cn3c2=O)c1)C1COC1 [Compound 345]
100 to 300 | COCCN(c1cccc(-n2cc3c(C(F)(F)F)cc(CN4CCC[C@H](C)C4)cn3c2=O)c1)c1nncn1C [Compound 375]
100 to 300 | C[C@H]1CCCN(C(c2cc(C(F)(F)F)c3cn(-c4cccc(C5(Cc6nncn6C)COC5)c4)c(=O)n3c2)C(F)(F)F)C1 (single isomer, unassigned) [Compound 195]
< 100 | C[C@@H]1CN(Cc2cc(C(F)(F)F)c3cn(-c4cccc([C@H](c5nncn5C)C5CCC5)c4)c(=O)n3c2)CCS1 [Compound 290]
< 100 | C[C@H]1CCCN(Cc2cc(C(F)(F)F)c3cn(-c4cccc([C@]5(c6nncn6C)C[C@@H](C)C5)c4)c(=O)n3c2)C1 (single isomer, unassigned) [Compound 60]
< 100 | CN1CCC(c2cc(C(F)(F)F)c3cn(-c4cccc(C5(Cc6nncn6C)COC5)c4)c(=O)n3c2)CC1 (single isomer, unassigned) [Compound 82]
< 100 | Cc1[nH]nnc1[C@@H](c1cccc(-n2cc3c(C(F)(F)F)cc(CN4CCC[C@H](C)C4)cn3c2=O)c1)C1CCC1 [Compound 327]
< 100 | Cn1cnnc1[C@@H](c1cccc(-n2cc3c(C(F)(F)F)cc(CN4Cc5ncsc5C4)cn3c2=O)c1)C1CCC1 [Compound 357]

Same assay, conditions: second part of Table 2 (head 'Patent Cmpd No / Updated Activity'); same CBL-B TR-FRET IC50 bins A-F; read-out: Updated Activity

IC50 [nM] | SMILES
100 to 300 | CC(=O)N1CCC[C@H](c2cc(C(F)(F)F)c3cn(-c4cccc([C@H](c5nncn5C)C5CCC5)c4)c(=O)n3c2)C1 (single isomer, unassigned) [Compound 396]
< 100 | CN(Cc1cc(C(F)(F)F)c2cn(-c3cccc([C@H](c4nncn4C)C4CCC4)c3)c(=O)n2c1)S(C)(=O)=O [Compound 520]
> 10000 | Cn1cnnc1[C@@H](c1cccc(-n2cc3c(C(F)(F)F)cccn3c2=O)c1)C1CCC1 [Compound 401_P2]
> 10000 | Cn1cnnc1[C@@H](c1cc(-c2ccncn2)cc(-n2cc3c(C(F)(F)F)cccn3c2=O)c1)C1CCC1 (single isomer, unassigned) [Compound 442]
< 100 | CO[C@H]1C[C@@H]([C@H](c2cccc(-n3cc4c(C(F)(F)F)cc(CN5CCC[C@H](C)C5)cn4c3=O)c2)c2nncn2C)C1 (single isomer, unassigned) [Compound 554]
> 10000 | C[C@@H]1CN(Cc2cc(C(F)(F)F)c3cn(-c4cccc([C@H](CC5CCC5)c5nncn5C)c4)c(=O)n3c2)CCO1 [Compound 402]
> 10000 | C[C@H]1CCCN(Cc2cc(C(F)(F)F)c3cn(-c4cccc([C@@H](c5nncn5C)[C@H]5C[C@@H](O)C5)c4)c(=O)n3c2)C1 (single isomer, unassigned) [Compound 436]
301 to 1000 | Cn1cnnc1[C@@H](c1cccc(-n2cc3c(C(F)(F)F)cc(C(=O)N4CCC(C)(F)CC4)cn3c2=O)c1)C1CCC1 [Compound 430]
< 100 | C[C@@H](c1cc(C(F)(F)F)c2cn(-c3cccc([C@H](c4nncn4C)C4CCC4)c3)c(=O)n2c1)N1CC[C@H](C#N)C1 (single isomer, unassigned) [Compound 573_P2]
< 100 | Cn1cnnc1C1(c2cccc(-n3cc4c(C(F)(F)F)cc(CN5CCc6ncsc6C5)cn4c3=O)c2)CCC1 [Compound 473]
< 100 | C[C@H]1CCCN(Cc2cc(C(F)(F)F)c3cn(-c4cccc([C@@H](c5nncn5C)[C@H]5C[C@H](O)C5)c4)c(=O)n3c2)C1 (single isomer, unassigned) [Compound 438]
< 100 | Cn1cnnc1[C@@H](c1cccc(-n2cc3c(C(F)(F)F)cc(CN4CCC5(CCO5)CC4)cn3c2=O)c1)C1CCC1 [Compound 524]
< 100 | CC(=O)N1CC[C@@H](c2cc(C(F)(F)F)c3cn(-c4cccc([C@H](c5nncn5C)C5CCC5)c4)c(=O)n3c2)C1 (single isomer, unassigned) [Compound 422]
> 10000 | CC(=O)N(C)Cc1cc([C@H](c2nncn2C)C2CCC2)cc(-n2cc3c(C(F)(F)F)cccn3c2=O)c1 (single isomer, unassigned) [Compound 513]
> 10000 | C[C@H]1CCCN(Cc2cc(C(F)(F)F)c3cn(-c4cccc([C@H](c5nc(CO)cn5C)C5CCC5)c4)c(=O)n3c2)C1 (single isomer, unassigned) [Compound 585]
> 10000 | Cn1cnnc1[C@@H](c1cc(-c2cnoc2)cc(-n2cc3c(C(F)(F)F)cccn3c2=O)c1)C1CCC1 (single isomer, unassigned) [Compound 455]
< 100 | COC1CCN(Cc2cc(C(F)(F)F)c3cn(-c4cccc([C@H](c5nncn5C)C5COC5)c4)c(=O)n3c2)CC1 [Compound 415]
